According to ChEMBL document CHEMBL1201862, “PubChem BioAssay data set” (2004):
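Exposure lasted 48 hours, with cells grown in 96-well plates and compounds tested at five concentrations. Abbreviation: GI50, concentration required for 50% inhibition of growth.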 Active and inactive are the calls of the source. No stated cut-off is given here; in the data, active = GI50 up to about 1.1 µM and inactive = higher.

What was measured:
Experiment in all cases: growth of human tumour cells (NCI), 48 h
MDA-MB-231 = test system: MDA-MB-231
U-251 = test system: U-251
MDA-N = test system: MDA-N
MDA-MB-435 = test system: MDA-MB-435
786-0 = test system: 786-0
SK-MEL-5 = test system: SK-MEL-5
UACC-62 = test system: UACC-62
M14 = test system: M14
SNB-19 = test system: SNB-19
OVCAR-4 = test system: OVCAR-4
RPMI-8226 = test system: RPMI-8226
SW-620 = test system: SW-620
HCT-116 = test system: HCT-116
SF-539 = test system: SF-539
SN12C = test system: SN12C
HCC 2998 = test system: HCC 2998
MCF7 = test system: MCF7
HCT-15 = test system: HCT-15

Row | Structure (SMILES) | GI50 (MDA-MB-231) | GI50 (U-251) | GI50 (MDA-N) | GI50 (MDA-MB-435) | GI50 (786-0) | GI50 (SK-MEL-5) | GI50 (UACC-62) | GI50 (M14) | GI50 (SNB-19) | GI50 (OVCAR-4) | GI50 (RPMI-8226) | GI50 (SW-620) | GI50 (HCT-116) | GI50 (SF-539) | GI50 (SN12C) | GI50 (HCC 2998) | GI50 (MCF7) | GI50 (HCT-15) [µM]
1 | CCOC(=O)C(NC(=O)c1ccccc1)(N1CCN(c2cc3c(cc2F)c(=O)c(C(=O)O)cn3C2CC2)CC1)C(F)(F)F (configuration not stated) | 12.9 µM (inactive) | 29.9 µM (inactive) | 21.1 µM (inactive) | 21.1 µM (inactive) | 32.4 µM (inactive) | 15.8 µM (inactive) | 22 µM (inactive) | 19.6 µM (inactive) | 29.2 µM (inactive) | 22.5 µM (inactive) | 23.1 µM (inactive) | 21.5 µM (inactive) | 17.1 µM (inactive) | 15.2 µM (inactive) | 26.4 µM (inactive) | 22.5 µM (inactive) | – | –
2 | CC(NC(=O)C1(N)CCCC1)C(=O)O (configuration not stated) | > 100 µM (inactive) | > 100 µM (inactive) | > 100 µM (inactive) | > 100 µM (inactive) | > 100 µM (inactive) | > 100 µM (inactive) | > 100 µM (inactive) | > 100 µM (inactive) | > 100 µM (inactive) | > 100 µM (inactive) | > 100 µM (inactive) | > 100 µM (inactive) | > 100 µM (inactive) | – | > 100 µM (inactive) | > 100 µM (inactive) | > 100 µM (inactive) | > 100
3 | CN1C=Cc2nccc3cc4c(c1c23)OCO4 | 3.08 µM (inactive) | 3.09 µM (inactive) | 2.27 µM (inactive) | 3.25 µM (inactive) | 1.61 µM (inactive) | 2.06 µM (inactive) | 1.36 µM (inactive) | 3.56 µM (inactive) | 1.87 µM (inactive) | 5.22 µM (inactive) | 1.04 µM (active) | 3.64 µM (inactive) | 1.5 µM (inactive) | – | 1.64 µM (inactive) | 4.03 µM (inactive) | 3.03 µM (inactive) | 7.59
4 | COCCOC(=O)NCn1cc(-c2ccccc2)nn1 | > 100 µM (inactive) | > 100 µM (inactive) | – | > 100 µM (inactive) | > 100 µM (inactive) | > 100 µM (inactive) | – | > 100 µM (inactive) | > 100 µM (inactive) | > 100 µM (inactive) | > 100 µM (inactive) | > 100 µM (inactive) | > 100 µM (inactive) | > 100 µM (inactive) | > 100 µM (inactive) | > 100 µM (inactive) | > 100 µM (inactive) | > 100
5 | CN(c1ccccc1Cl)S(=O)(=O)c1ccccc1 | 81.5 µM (inactive) | > 100 µM (inactive) | > 100 µM (inactive) | 76.6 µM (inactive) | > 100 µM (inactive) | 34.9 µM (inactive) | > 100 µM (inactive) | > 100 µM (inactive) | > 100 µM (inactive) | > 100 µM (inactive) | > 100 µM (inactive) | > 100 µM (inactive) | 82.4 µM (inactive) | > 100 µM (inactive) | > 100 µM (inactive) | – | > 100 µM (inactive) | > 100
6 | O=[As](O)(O)c1ccc(/N=N/c2ccc(O)cc2)cc1 | > 100 µM (inactive) | > 100 µM (inactive) | > 100 µM (inactive) | > 100 µM (inactive) | > 100 µM (inactive) | > 100 µM (inactive) | > 100 µM (inactive) | > 100 µM (inactive) | > 100 µM (inactive) | > 100 µM (inactive) | > 100 µM (inactive) | > 100 µM (inactive) | > 100 µM (inactive) | – | > 100 µM (inactive) | – | > 100 µM (inactive) | > 100
7 | Cn1c2ccccc2c2c(-c3ccccc3)[n+]3ccccc3nc21 | 32.9 µM (inactive) | 24.8 µM (inactive) | – | 20.6 µM (inactive) | 23.2 µM (inactive) | 16.8 µM (inactive) | 21.2 µM (inactive) | 18.1 µM (inactive) | 65.8 µM (inactive) | 61.7 µM (inactive) | 17.8 µM (inactive) | 23.2 µM (inactive) | – | 34.8 µM (inactive) | 25.8 µM (inactive) | – | – | > 100
8 | CC(C)(C)OC(=O)NCCCC(=O)NC1(c2cc3ccccc3s2)CCCCC1 | – | – | 15.8 µM (inactive) | 15.4 µM (inactive) | 16.9 µM (inactive) | 5.89 µM (inactive) | 10.8 µM (inactive) | 18 µM (inactive) | 34.8 µM (inactive) | 20.5 µM (inactive) | 11.7 µM (inactive) | 15.8 µM (inactive) | 14 µM (inactive) | 15.5 µM (inactive) | 17.5 µM (inactive) | 21.6 µM (inactive) | 16.3 µM (inactive) | 15.6
9 | COc1cc(Cl)c(CC(=O)c2c[nH]c3ccccc23)cc1OC | 8.95 µM (inactive) | 8.38 µM (inactive) | > 100 µM (inactive) | > 100 µM (inactive) | 13.7 µM (inactive) | > 100 µM (inactive) | > 100 µM (inactive) | > 100 µM (inactive) | 13.4 µM (inactive) | > 100 µM (inactive) | > 100 µM (inactive) | > 100 µM (inactive) | 98.6 µM (inactive) | 6.22 µM (inactive) | 58.5 µM (inactive) | – | > 100 µM (inactive) | > 100
10 | Cc1cn(C2CC(OC(=O)c3ccc(Cl)cc3)C(COC(=O)c3ccc(Cl)cc3)O2)c(=O)[nH]c1=O (configuration not stated) | – | > 100 µM (inactive) | > 100 µM (inactive) | > 100 µM (inactive) | > 100 µM (inactive) | > 100 µM (inactive) | > 100 µM (inactive) | > 100 µM (inactive) | > 100 µM (inactive) | > 100 µM (inactive) | > 100 µM (inactive) | > 100 µM (inactive) | > 100 µM (inactive) | – | > 100 µM (inactive) | – | > 100 µM (inactive) | > 100
11 | CC(=O)Nc1ccc2c(C(=O)O)c(C)c(O)nc2n1 | > 100 µM (inactive) | 46.9 µM (inactive) | > 100 µM (inactive) | > 100 µM (inactive) | > 100 µM (inactive) | > 100 µM (inactive) | > 100 µM (inactive) | > 100 µM (inactive) | 25.5 µM (inactive) | – | > 100 µM (inactive) | > 100 µM (inactive) | 71.3 µM (inactive) | > 100 µM (inactive) | > 100 µM (inactive) | – | > 100 µM (inactive) | > 100
12 | O=C(c1ccco1)N1CCCN(C(=O)c2ccco2)C1=S | > 100 µM (inactive) | > 100 µM (inactive) | > 100 µM (inactive) | > 100 µM (inactive) | > 100 µM (inactive) | > 100 µM (inactive) | > 100 µM (inactive) | > 100 µM (inactive) | > 100 µM (inactive) | – | > 100 µM (inactive) | > 100 µM (inactive) | > 100 µM (inactive) | 29.4 µM (inactive) | > 100 µM (inactive) | – | 74.8 µM (inactive) | > 100
13 | C=CC(C)(C)C1(CC(OC)OC)C(=O)N(C)c2ccccc21 (configuration not stated) | > 25 µM (inactive) | > 25 µM (inactive) | > 25 µM (inactive) | > 25 µM (inactive) | > 25 µM (inactive) | > 25 µM (inactive) | > 25 µM (inactive) | > 25 µM (inactive) | > 25 µM (inactive) | > 25 µM (inactive) | > 25 µM (inactive) | > 25 µM (inactive) | > 25 µM (inactive) | – | > 25 µM (inactive) | > 25 µM (inactive) | > 25 µM (inactive) | > 25
14 | N=C(N)N/N=C/c1c(-c2cc([N+](=O)[O-])c(Cl)cc2Cl)nc2n1CCS2 | 24.1 µM (inactive) | 3.21 µM (inactive) | – | 9.38 µM (inactive) | 32.4 µM (inactive) | 29.9 µM (inactive) | 25.5 µM (inactive) | 6.04 µM (inactive) | 3.87 µM (inactive) | 10.4 µM (inactive) | 7.6 µM (inactive) | 3.97 µM (inactive) | 5.01 µM (inactive) | 42.5 µM (inactive) | 23.4 µM (inactive) | 2.55 µM (inactive) | 2.67 µM (inactive) | 47
15 | CCOC(=O)C1=C(N2CCCC2)NC(=O)CC1=O | > 100 µM (inactive) | > 100 µM (inactive) | > 100 µM (inactive) | > 100 µM (inactive) | > 100 µM (inactive) | > 100 µM (inactive) | > 100 µM (inactive) | > 100 µM (inactive) | > 100 µM (inactive) | > 100 µM (inactive) | > 100 µM (inactive) | > 100 µM (inactive) | > 100 µM (inactive) | > 100 µM (inactive) | > 100 µM (inactive) | > 100 µM (inactive) | – | > 100
16 | CN(CC(=O)O)c1ncc2c(n1)CCCC2 | > 100 µM (inactive) | > 100 µM (inactive) | > 100 µM (inactive) | > 100 µM (inactive) | > 100 µM (inactive) | > 100 µM (inactive) | > 100 µM (inactive) | > 100 µM (inactive) | > 100 µM (inactive) | > 100 µM (inactive) | > 100 µM (inactive) | > 100 µM (inactive) | > 100 µM (inactive) | > 100 µM (inactive) | > 100 µM (inactive) | – | > 100 µM (inactive) | > 100
17 | CN(C(=O)Cc1cc(Cl)c(Cl)cc1NC(=O)CN)[C@H]1CCCC[C@@H]1N1CCCC1 | 23.3 µM (inactive) | 17.8 µM (inactive) | 15.3 µM (inactive) | 16.1 µM (inactive) | 16.3 µM (inactive) | – | 16 µM (inactive) | 18.2 µM (inactive) | 45.8 µM (inactive) | > 100 µM (inactive) | 30.8 µM (inactive) | 62.7 µM (inactive) | 30 µM (inactive) | – | 56.6 µM (inactive) | 16.6 µM (inactive) | 28.6 µM (inactive) | 37
